Where only a bound is given, the exact number is not on record here.

Assay [1] deals with T1, Aurora-2 (Homo sapiens, UniProt O14965).
T1 sequence (O14965 1-403): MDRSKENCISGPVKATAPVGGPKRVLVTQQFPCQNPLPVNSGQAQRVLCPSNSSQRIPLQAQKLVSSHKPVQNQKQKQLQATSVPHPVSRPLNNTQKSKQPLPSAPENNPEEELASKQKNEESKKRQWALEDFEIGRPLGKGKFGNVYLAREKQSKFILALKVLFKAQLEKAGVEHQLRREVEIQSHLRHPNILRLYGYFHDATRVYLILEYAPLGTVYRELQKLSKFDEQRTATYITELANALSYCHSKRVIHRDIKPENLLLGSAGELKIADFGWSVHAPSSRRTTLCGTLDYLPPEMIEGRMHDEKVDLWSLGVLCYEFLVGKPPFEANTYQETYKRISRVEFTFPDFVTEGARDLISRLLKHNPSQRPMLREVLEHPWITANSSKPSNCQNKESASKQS
The assay can be described thus: Ki determination for the inhibition of Aurora-2 (coupled enzyme assay). It is filed as biochemical. The settings on record: 70 nM Aurora-2, 30° C. The method, boiled down: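 Ki came from reaction rates plotted against inhibitor concentration, with rates taken as A340 decrease over 5 min at 30° C. Enzyme (70 nM final) was added after 10 min compound preincubation; stock buffer held […], 800 μM LRRASLG, PK/LDH coupling, pH 7.5.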

In assay [2] the target is T2, human Src kinase (Homo sapiens, UniProt P12931).
T2 construct: full length recombinant human Src kinase (from Upstate Biotechnology, cat. no. 14-117); purchased Upstate Biotechnology 14-117; host or cells: baculo viral cells
The experiment in a line: SRC inhibition assay (radioactivity-based or spectrophotometric assay). It is filed as biochemical. Conditions: recombinant human Src kinase; assay A or B; read-out: Ki value on SRC. The essentials: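 Full-length recombinant human Src from baculovirus was used. In the radiometric format, enzyme was preincubated 10 min at 30 °C, the reaction was started with ^33P-ATP and run 20 min, then TCA-quenched and filter-counted. The alternative format monitored poly Glu-Tyr phosphorylation by NADH-coupled A340 rate. Ki came from competitive-inhibition fits.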

T2 sequence (P12931 whole entry): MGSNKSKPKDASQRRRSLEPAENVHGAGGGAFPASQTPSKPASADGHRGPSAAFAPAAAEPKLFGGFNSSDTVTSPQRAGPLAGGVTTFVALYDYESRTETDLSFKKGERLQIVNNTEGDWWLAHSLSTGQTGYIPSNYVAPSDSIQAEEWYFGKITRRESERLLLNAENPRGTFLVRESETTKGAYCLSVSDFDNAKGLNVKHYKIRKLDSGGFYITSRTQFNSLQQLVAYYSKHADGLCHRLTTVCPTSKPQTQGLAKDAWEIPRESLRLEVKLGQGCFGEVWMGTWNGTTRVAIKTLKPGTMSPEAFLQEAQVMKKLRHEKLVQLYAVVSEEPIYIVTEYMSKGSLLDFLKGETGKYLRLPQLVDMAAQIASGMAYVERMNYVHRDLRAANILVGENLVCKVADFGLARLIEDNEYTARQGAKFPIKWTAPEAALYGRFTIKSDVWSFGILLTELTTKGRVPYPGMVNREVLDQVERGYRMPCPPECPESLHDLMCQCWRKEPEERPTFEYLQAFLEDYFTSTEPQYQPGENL

As for `c1ccc2c(Nc3cc(C4CC4)[nH]n3)nc(Nc3ccc4ncsc4c3)nc2c1` [IIc-32, [2-(Benzothiazol-6-ylamino)-quinazolin-4-yl]-(5-cyclopropyl-2H-pyrazol-3-yl)-amine], the Ki in assay [1] and in assay [2] was below 100 nM throughout.

As a reminder, the Ki is the dissociation constant of the complex between target and ligand, obtained from inhibition or displacement.

For the origin of these results see patent publication US6653300B2, “Pyrazole compounds useful as protein kinase inhibitors” (Vertex Pharmaceuticals Incorporated, priority 2000, dated 2003).
